{
  "source": "patent US9492501B2",
  "about": "“Antiviral agent” (priority 2009, dated 2016)",
  "key": {"[1]": {"system": "HIV-1 (proviral genome NL4.3, strain LAI)", "assay": "HIV-1 replication, ELISA of viral p24 capsid protein in supernatant of infected Jurkat 1G5 cells", "assay_type": "cell-based", "conditions": "Human immunodeficiency virus 1; 10 μM AZT, treatment 24 hours, p24 in supernatant, Jurkat 1G5", "from_the_text": "(§1) Method: a Jurkat CD4+ T lymphocyte cell line (line 1G5) having integrated into its genome a construction comprising a luciferase reporter gene the expression of which is controlled by the HIV-1 promoter (HIV-1 LTR; HIV-LTR Jurkat line) was used. The measurement of luciferase activity from the cell extracts therefore makes it possible to estimate the HIV-1 transcriptional activity.\n(§2) The Jurkat HIV-LTR and Jurkat 1G5 lines were transfected by means of the DEAE-dextran technique with the proviral genome NL4.3 (complete HIV-1 genome, strain LAI).\n(§3) The HIV-LTR Jurkat and 1G5 Jurkat lines thus infected, are treated 24 hours later with HPBP/PON protein complexes or with purified PON or HPBP proteins at a final concentration of 2 μg/mL of medium (52 nM of protein alone).\n(§4) The cells and the cell supernatant are sampled after treatment for 24 hours.\n(§5) The transcriptional activity is measured by carrying out a luciferase test. The intensity of the HIV-1 replication is measured by means of ELISA assay of the quantity of viral p24 capsid proteins present in the supernatant of the cell cultures of the infected 1G5 lines [Rohr, O., et al. (2000). The Journal of Biological Chemistry 275, 2654-2660]. […]\n(§6) The transcriptional activity and inhibition of the replication are measured as described in Example 6."}, "[2]": {"system": "HIV-1 promoter (HIV-1 LTR)", "assay": "HIV-1 transcriptional activity, luciferase test in HIV-LTR Jurkat line", "assay_type": "cell-based", "conditions": "10 μM AZT, treatment 24 hours, FIG. 5 (luciferase activity)", "from_the_text": "as §1, §2, §3, §4, §5, §6"}},
  "data": [
    {"smiles": "Cc1cn([C@H]2C[C@H](N=[N+]=[N-])[C@@H](CO)O2)c(=O)[nH]c1=O", "note": "[AZT, zidovudine, reference compound]", "values": [
      {"measurement": "inhibition at 10 µM", "setting": "[1]", "result": 60, "unit": "%"},
      {"measurement": "effect on the replication of the virus (FIG. 5)", "setting": "[2]", "result": "no effect"}
    ]}
  ]
}
